Laboratory results: patent publication US11780830B2, “Triazolone derivatives or salts thereof and pharmaceutical compositions comprising the same” (YUHAN CORPORATION, priority 2018, dated 2023)

Assays:
Type in all cases: biochemical
recombinant human VAP-1 = molecular target: T1, recombinant human VAP-1 (Homo sapiens, UniProt Q16853); assay: Activity on recombinant human VAP-1, HRP-coupled Amplex Red hydrogen peroxide assay; conditions: substrate 1 mM benzylamine; compound incubated with enzyme at 37° C. for 30 minutes; pH 7.4; read-out: Inhibitory Activity (IC50, nM) human VAP-1
T1 construct: purchased R&D systems
T1 sequence (Q16853 1-763): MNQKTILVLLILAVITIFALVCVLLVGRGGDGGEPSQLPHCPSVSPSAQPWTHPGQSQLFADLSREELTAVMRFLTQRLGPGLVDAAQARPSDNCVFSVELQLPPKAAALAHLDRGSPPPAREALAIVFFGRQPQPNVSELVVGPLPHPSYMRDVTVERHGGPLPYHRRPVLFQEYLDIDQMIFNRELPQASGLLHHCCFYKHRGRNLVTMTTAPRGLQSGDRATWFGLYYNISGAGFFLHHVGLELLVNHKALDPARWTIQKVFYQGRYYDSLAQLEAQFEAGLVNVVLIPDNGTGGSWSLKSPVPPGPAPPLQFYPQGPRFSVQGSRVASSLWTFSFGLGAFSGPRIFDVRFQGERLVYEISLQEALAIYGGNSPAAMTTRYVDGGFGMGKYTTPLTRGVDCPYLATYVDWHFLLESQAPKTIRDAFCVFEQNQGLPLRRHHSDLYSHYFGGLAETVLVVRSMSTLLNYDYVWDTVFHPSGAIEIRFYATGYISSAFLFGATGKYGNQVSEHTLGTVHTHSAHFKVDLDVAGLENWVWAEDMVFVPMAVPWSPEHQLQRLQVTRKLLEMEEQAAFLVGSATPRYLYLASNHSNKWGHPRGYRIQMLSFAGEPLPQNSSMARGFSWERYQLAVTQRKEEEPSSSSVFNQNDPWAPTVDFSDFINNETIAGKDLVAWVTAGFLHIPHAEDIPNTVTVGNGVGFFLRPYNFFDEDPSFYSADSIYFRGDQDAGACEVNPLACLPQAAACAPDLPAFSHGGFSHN
Summary of the method: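 Enzyme in 50 mM sodium phosphate (pH 7.4) is exposed to test compound for 30 min at 37 °C. Benzylamine (1 mM) with HRP and Amplex Red then starts the reaction, and the fluorescence rate, relative to a DMSO-only control, gives IC50.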

[1] = molecular target: T2, recombinant human MAO-A (monoamine oxidase-A) (Homo sapiens, UniProt P21397); assay: Activity on recombinant human MAO-A, method similar to the VAP-1 assay; conditions: substrate 0.5 mM tyramine; read-out: Inhibitory Activity (IC50, nM) MAO-A
T2 construct: purchased Sigma-Aldrich
T2 sequence (P21397 1-527): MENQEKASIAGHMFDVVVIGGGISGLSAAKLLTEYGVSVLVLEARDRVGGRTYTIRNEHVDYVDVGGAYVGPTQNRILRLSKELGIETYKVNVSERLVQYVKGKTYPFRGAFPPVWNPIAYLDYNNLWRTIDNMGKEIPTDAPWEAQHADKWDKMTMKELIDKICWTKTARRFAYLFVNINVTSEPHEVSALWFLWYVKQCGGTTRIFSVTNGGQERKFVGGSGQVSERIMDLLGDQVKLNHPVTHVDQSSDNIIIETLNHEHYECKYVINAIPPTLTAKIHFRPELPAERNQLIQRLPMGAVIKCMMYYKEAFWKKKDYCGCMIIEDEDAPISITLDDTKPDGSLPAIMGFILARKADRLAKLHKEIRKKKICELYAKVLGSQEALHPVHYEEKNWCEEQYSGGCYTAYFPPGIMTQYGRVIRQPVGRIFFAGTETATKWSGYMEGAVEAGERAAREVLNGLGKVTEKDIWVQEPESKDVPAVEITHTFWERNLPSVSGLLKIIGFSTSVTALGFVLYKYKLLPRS
Summary of the method: (§1)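 Enzyme in pH 7.4 phosphate buffer; 30 min, 37° C with compound (DMSO <1%); start with 200 uM Amplex Red + 1 U/mL HRP + tyramine 0.5 mM (MAO-A) or benzylamine 1 mM (MAO-B); kinetic read ex 544/em 590, 1-2 h; % rate decrease vs DMSO control → IC50, 4-parameter fit.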

[2] = molecular target: T3, recombinant human MAO-B (monoamine oxidase-B) (Homo sapiens, UniProt P27338); assay: Activity on recombinant human MAO-B, method similar to the VAP-1 assay; conditions: substrate 1 mM benzylamine; read-out: Inhibitory Activity (IC50, nM) MAO-B
T3 construct: purchased Sigma-Aldrich
T3 sequence (P27338 1-520): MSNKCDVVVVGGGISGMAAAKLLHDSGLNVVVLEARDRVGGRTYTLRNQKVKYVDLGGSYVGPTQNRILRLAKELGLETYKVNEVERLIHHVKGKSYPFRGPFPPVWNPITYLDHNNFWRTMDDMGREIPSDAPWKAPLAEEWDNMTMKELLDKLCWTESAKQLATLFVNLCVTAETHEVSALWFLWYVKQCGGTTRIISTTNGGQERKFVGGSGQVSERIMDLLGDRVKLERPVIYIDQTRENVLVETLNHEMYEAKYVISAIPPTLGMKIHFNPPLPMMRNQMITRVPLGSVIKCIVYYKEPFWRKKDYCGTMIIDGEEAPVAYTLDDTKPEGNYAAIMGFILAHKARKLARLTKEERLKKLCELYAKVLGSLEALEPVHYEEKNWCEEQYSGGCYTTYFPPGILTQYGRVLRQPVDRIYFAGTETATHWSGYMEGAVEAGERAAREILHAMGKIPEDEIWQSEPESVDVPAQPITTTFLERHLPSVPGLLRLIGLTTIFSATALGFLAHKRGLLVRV
Summary of the method: as §1

[3] = molecular target: T4, recombinant human DAO (diamine oxidase) (Homo sapiens, UniProt P19801); assay: Activity on recombinant human DAO, method similar to the VAP-1 assay; conditions: substrate 1 mM putrescine; read-out: Inhibitory Activity (IC50, nM) DAO
T4 construct: purchased R&D systems
T4 sequence (P19801 20-751): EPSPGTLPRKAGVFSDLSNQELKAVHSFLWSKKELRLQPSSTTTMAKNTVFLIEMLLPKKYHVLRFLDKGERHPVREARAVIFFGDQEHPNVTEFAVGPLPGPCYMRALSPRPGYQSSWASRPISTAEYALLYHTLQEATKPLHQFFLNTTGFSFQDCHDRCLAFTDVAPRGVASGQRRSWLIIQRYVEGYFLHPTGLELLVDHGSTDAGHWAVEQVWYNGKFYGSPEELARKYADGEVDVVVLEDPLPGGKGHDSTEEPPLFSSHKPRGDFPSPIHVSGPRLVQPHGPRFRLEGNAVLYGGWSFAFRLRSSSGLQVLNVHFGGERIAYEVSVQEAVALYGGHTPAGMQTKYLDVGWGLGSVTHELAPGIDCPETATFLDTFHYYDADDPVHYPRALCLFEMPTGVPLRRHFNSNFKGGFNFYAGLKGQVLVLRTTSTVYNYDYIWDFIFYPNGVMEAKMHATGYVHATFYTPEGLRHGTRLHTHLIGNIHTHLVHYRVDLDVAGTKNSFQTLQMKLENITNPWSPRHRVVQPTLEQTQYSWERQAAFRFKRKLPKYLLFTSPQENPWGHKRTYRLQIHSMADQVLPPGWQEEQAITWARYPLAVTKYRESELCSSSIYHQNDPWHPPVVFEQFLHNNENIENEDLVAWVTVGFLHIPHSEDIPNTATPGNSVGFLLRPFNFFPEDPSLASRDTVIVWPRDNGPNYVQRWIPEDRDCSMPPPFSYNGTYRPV
Summary of the method: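 Inhibition of recombinant human diamine oxidase (DAO, R&D systems) was assessed by the same approach as the VAP-1 assay, using 1 mM putrescine as substrate. Hydrogen peroxide formed was detected through an HRP-coupled Amplex Red reaction yielding fluorescent resorufin, read at 544 nm excitation and 590 nm emission. IC50 values came from four-parameter logistic fitting in GraphPad Prism.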

Compound	IC50 (recombinant human VAP-1) [nM]	IC50 [1] [nM]	IC50 [2] [nM]	IC50 [3] [nM]
NC/C(=C\F)Cn1ncn(Cc2ccc(-c3ccc(-c4noc(=O)[nH]4)cc3)s2)c1=O [Example 144, 3-{4-[5-({1-[(2E)-2-(aminomethyl)-3-fluoroprop-2-en-1-yl]-5-oxo-1,5-dihydro-4H-1,2,4-triazol-4-yl}methyl)thiophen-2-yl]phenyl}-1,2,4-oxadiazol-5(4H)-one]	4.6	> 100000	13000	7400
NC/C(=C\F)Cn1ncn(Cc2ccc(-c3ccc(CN4CCOCC4)nc3)s2)c1=O [Example 145, 2-[(2E)-2-(aminomethyl)-3-fluoroprop-2-en-1-yl]-4-({5-[6-(morpholin-4-ylmethyl)pyridin-3-yl]thiophen-2-yl}methyl)-2,4-dihydro-3H-1,2,4-triazol-3-one]	4.4	> 100000	> 100000	490
NC/C(=C\F)Cn1ncn(Cc2ccc(-c3cc4c(cc3F)NC(=O)CC4)s2)c1=O [Example 146, 6-[5-({1-[(2E)-2-(aminomethyl)-3-fluoroprop-2-en-1-yl]-5-oxo-1,5-dihydro-4H-1,2,4-triazol-4-yl}methyl)thiophen-2-yl]-7-fluoro-3,4-dihydroquinolin-2(1H)-one]	0.4	> 100000	3900	1300
NC/C(=C\F)Cn1ncn(Cc2ccc(-c3cnc4c(c3)CCC(=O)N4)s2)c1=O [Example 148, 6-[5-({1-[(2E)-2-(aminomethyl)-3-fluoroprop-2-en-1-yl]-5-oxo-1,5-dihydro-4H-1,2,4-triazol-4-yl}methyl)thiophen-2-yl]-3,4-dihydro-1,8-naphthyridin-2(1H)-one]	0.4	> 100000	24000	420
CN1C(=O)COc2ncc(-c3ccc(Cn4cnn(C/C(=C/F)CN)c4=O)s3)cc21 [Example 150, 7-[5-({1-[(2E)-2-(aminomethyl)-3-fluoroprop-2-en-1-yl]-5-oxo-1,5-dihydro-4H-1,2,4-triazol-4-yl}methyl)thiophen-2-yl]-1-methyl-1H-pyrido[2,3-b][1,4]oxazin-2(3H)-one]	0.8	> 100000	26000	190
NC/C(=C\F)Cn1ncn(Cc2ccc(-c3cn[nH]c3)s2)c1=O [Example 152, 2-[(2E)-2-(aminomethyl)-3-fluoroprop-2-en-1-yl]-4-{[5-(1H-pyrazol-4-yl)thiophen-2-yl]methyl}-2,4-dihydro-3H-1,2,4-triazol-3-one]	4.9	13000	3500	4400
CC(=O)c1ccc(-c2ccc(Cn3cnn(C/C(=C/F)CN)c3=O)s2)s1 [Example 155, 4-[(5′-acetyl-2,2′-bithiophen-5-yl)methyl]-2-[(2E)-2-(aminomethyl)-3-fluoroprop-2-en-1-yl]-2,4-dihydro-3H-1,2,4-triazol-3-one]	0.4	> 100000	470	950

More lines, in order of falling IC50 (recombinant human VAP-1), values ahead:

IC50 (recombinant human VAP-1) [nM]	IC50 [1] [nM]	IC50 [2] [nM]	IC50 [3] [nM]	Compound
4.4	> 100000	1400	690	Cn1c(-c2ccc(Cn3cnn(C/C(=C/F)CN)c3=O)s2)cnc1Cl [Example 154, 2-[(2E)-2-(aminomethyl)-3-fluoroprop-2-en-1-yl]-4-{[5-(2-chloro-1-methyl-1H-imidazol-5-yl)thiophen-2-yl]methyl}-2,4-dihydro-3H-1,2,4-triazol-3-one]
2.7	59000	1500	790	NC/C(=C\F)Cn1ncn(Cc2ccc(-c3cnn(Cc4ccccc4)c3)s2)c1=O [Example 151, 2-[(2E)-2-(aminomethyl)-3-fluoroprop-2-en-1-yl]-4-{[5-(1-benzyl-1H-pyrazol-4-yl)thiophen-2-yl]methyl}-2,4-dihydro-3H-1,2,4-triazol-3-one]
1.3	> 100000	1900	4700	CCn1cc(-c2ccc(Cn3cnn(C/C(=C/F)CN)c3=O)s2)cn1 [Example 153, 2-[(2E)-2-(aminomethyl)-3-fluoroprop-2-en-1-yl]-4-{[5-(1-ethyl-1H-pyrazol-4-yl)thiophen-2-yl]methyl}-2,4-dihydro-3H-1,2,4-triazol-3-one]
0.4	> 100000	4500	470	NC/C(=C\F)Cn1ncn(Cc2ccc(-c3cnc4c(c3)COC(=O)N4)s2)c1=O [Example 149, 6-[5-({1-[(2E)-2-(aminomethyl)-3-fluoroprop-2-en-1-yl]-5-oxo-1,5-dihydro-4H-1,2,4-triazol-4-yl}methyl)thiophen-2-yl]-1,4-dihydro-2H-pyrido[2,3-d][1,3]oxazin-2-one]
0.3	> 100000	6700	1000	CN1Cc2cc(-c3ccc(Cn4cnn(C/C(=C/F)CN)c4=O)s3)ccc2NC1=O [Example 147, 6-[5-({1-[(2E)-2-(aminomethyl)-3-fluoroprop-2-en-1-yl]-5-oxo-1,5-dihydro-4H-1,2,4-triazol-4-yl}methyl)thiophen-2-yl]-3-methyl-3,4-dihydroquinazolin-2(1H)-one]
